These results are taken from PubChem BioAssay (NCI).

SMILES strings stand for the structures.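 Each compound was tested at five concentrations against cells in 96-well plates for 48 hours. GI50 marks 50% less growth. TGI: total growth inhibition.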

Some test systems named below: NCI-H226 lung; HL-60(TB) leukemia; TK-10 renal; UO-31 renal; RXF 393 renal; EKVX NSCLC; SNB-75 CNS; BT-549 breast; NCI/ADR-RES ovarian; MDA-MB-231 breast.
Assay in all cases: inhibition of tumour cell growth, NCI panel, 48 h

As to `Cc1ccccc1NC(=O)c1[nH]c(=S)nc(N)c1-c1ccccc1C`, the TGI in the assay with NCI-H226 lung, in the assay on HL-60(TB) leukemia, with TK-10 renal, in the assay on UO-31 renal, in the assay with RXF 393 renal and in the assay on EKVX NSCLC was > 100 µM each time. The same compound had a TGI with SNB-75 CNS of 76.1 µM.
Turning to `CCCCCCCCCCCCC(Br)C(=O)SCCNC(=O)CCNC(=O)[C@@H](O)C(C)(C)COP(=O)(O)OP(=O)(O)OCC1OC(n2cnc3c(N)ncnc32)C(O)C1OP(=O)(O)O` (some centres undefined), the TGI with NCI-H226 lung, in the assay with HL-60(TB) leukemia, with TK-10 renal, in the assay on UO-31 renal, in the assay on RXF 393 renal and with EKVX NSCLC was > 56.5 µM in each case. In addition, the TGI in the assay with SNB-75 CNS is > 56.5 µM.
Consider `COC(=O)/C(C#N)=C1\N=NNN1CCCc1ccccc1`, for which the TGI in the assay with NCI-H226 lung, in the assay with TK-10 renal, with UO-31 renal, in the assay with RXF 393 renal, in the assay on EKVX NSCLC and with SNB-75 CNS was > 100 µM each time.
As for `COc1ccccc1NC(=O)C1=C(C)NC(C)=C(C(=O)Nc2ccccc2OC)C1c1ccc(C(C)C)cc1`, the TGI was > 100 µM in the assay on NCI-H226 lung; > 1 µM in the assay on HL-60(TB) leukemia; > 100 µM in the assay on TK-10 renal; > 100 µM with UO-31 renal; > 100 µM in the assay on EKVX NSCLC; > 100 µM in the assay with SNB-75 CNS.
Consider `O=C(NC(=S)NS(=O)(=O)c1ccc(N2N=C3c4ccccc4CC3C2c2cccs2)cc1)c1ccccc1` (centres undefined), for which the GI50 was 41.1 µM in the assay with UO-31 renal; 21.6 µM in the assay on BT-549 breast; 54 µM in the assay on RXF 393 renal; 18.8 µM in the assay with NCI/ADR-RES ovarian; 19.6 µM with EKVX NSCLC; 22.5 µM with MDA-MB-231 breast. The GI50 in the assay on SNB-75 CNS is > 100 µM. The TGI with UO-31 renal is > 100 µM; in the assay with BT-549 breast it was > 100 µM; with RXF 393 renal, > 100 µM; in the assay on NCI/ADR-RES ovarian, 67.1 µM; in the assay on EKVX NSCLC, > 100 µM; with MDA-MB-231 breast, 90.1 µM. Also, the TGI in the assay on SNB-75 CNS was > 100 µM.
With `CC1OC(OP(=O)(OCc2ccccc2)OCc2ccccc2)C(OC(=O)c2ccccc2)C(OC(=O)c2ccccc2)C1I` (centres undefined), the TGI is 49.4 µM in the assay on HL-60(TB) leukemia; > 100 µM in the assay with TK-10 renal; > 100 µM in the assay on UO-31 renal; 76.9 µM with RXF 393 renal; > 100 µM in the assay with EKVX NSCLC; 68.1 µM in the assay with SNB-75 CNS.
Turning to `O=C(/C=C/c1ccccc1F)C(c1ccccc1)c1ccccc1`, the TGI in the assay on NCI-H226 lung was found to be 25.3 µM; with HL-60(TB) leukemia, 11.8 µM; in the assay with TK-10 renal it was 14.6 µM; in the assay on UO-31 renal, 25.2 µM; in the assay on EKVX NSCLC it was 24.4 µM; with SNB-75 CNS it was 19.2 µM.
In the case of `C/C=C/C1(NS(=O)(=O)c2ccc(C)cc2)CCC(C(C)(C)C)CC1` (centres undefined), the TGI in the assay on NCI-H226 lung worked out at 44.4 µM; in the assay with HL-60(TB) leukemia, 44.5 µM; in the assay with TK-10 renal, 94.6 µM; in the assay with UO-31 renal, 62.3 µM; in the assay on RXF 393 renal, 42.3 µM; with EKVX NSCLC, 64.5 µM. The TGI with SNB-75 CNS was > 100 µM.
For `CC(C)(C)c1ccccc1NS(=O)(=O)c1ccccc1`, the TGI is 88.2 µM with NCI-H226 lung; > 100 µM with HL-60(TB) leukemia; > 100 µM in the assay on TK-10 renal; > 100 µM with UO-31 renal; > 100 µM with RXF 393 renal; > 100 µM in the assay with EKVX NSCLC. For the same compound, the TGI with SNB-75 CNS was > 100 µM.
Take `Cc1c(Cl)cccc1NC(=O)C(=O)C1C(=O)NC(=O)NC1=O`: the TGI in the assay with NCI-H226 lung, in the assay on HL-60(TB) leukemia, with TK-10 renal, with UO-31 renal, in the assay with RXF 393 renal and in the assay on EKVX NSCLC was > 100 µM in each case. Further, the TGI in the assay with SNB-75 CNS is > 100 µM.
Consider `CC(C)(C)c1cc(C(O)(C(F)(F)F)C(F)(F)F)c2c(c1)C(C(F)(F)F)(C(F)(F)F)OC(c1ccccc1)(C(C)(C)C)N2` (centres undefined), for which the TGI with NCI-H226 lung is 9.32 µM; with TK-10 renal, 14.2 µM; with UO-31 renal, 15.2 µM; with RXF 393 renal, 12.3 µM; in the assay with EKVX NSCLC, 17.5 µM; in the assay on SNB-75 CNS, 15.1 µM.
For `CCOC(=O)[C@H]1Nc2ccc(O)cc2C2c3ccccc3CC21` (some centres undefined), the TGI is > 100 µM in the assay with NCI-H226 lung; > 100 µM with TK-10 renal; > 100 µM in the assay on UO-31 renal; 91.9 µM with RXF 393 renal; > 100 µM with EKVX NSCLC; > 100 µM with SNB-75 CNS.
Consider `O=C1C(c2ccccc2)=C(c2ccccc2)C(c2ccccc2)/C1=C1\C(=O)C(c2ccccc2)=C(c2ccccc2)C1c1ccccc1` (centres undefined), for which the TGI with NCI-H226 lung, in the assay on HL-60(TB) leukemia, with TK-10 renal, in the assay on UO-31 renal, in the assay with RXF 393 renal and with EKVX NSCLC was > 100 µM each time. Further, in the assay with SNB-75 CNS, the TGI is > 100 µM.
On to `O=Cc1cc(O)c(O)c(O)c1-c1c(C=O)cc(O)c(O)c1O`, for which the TGI in the assay with NCI-H226 lung, in the assay with HL-60(TB) leukemia, with TK-10 renal, with UO-31 renal, in the assay on EKVX NSCLC and in the assay with SNB-75 CNS was > 100 µM throughout.
For the compound `O=C(O)/C(Cl)=C(/Cl)C(=O)Nc1cccc(Cl)c1`, the TGI in the assay on NCI-H226 lung was found to be 67.2 µM; with HL-60(TB) leukemia it was 22.7 µM; in the assay with TK-10 renal, 33.8 µM; in the assay on UO-31 renal, 37.4 µM; in the assay on BT-549 breast, 34.1 µM; in the assay on RXF 393 renal, 30 µM. Further, the TGI is 33.6 µM in the assay on EKVX NSCLC, 28.1 µM in the assay with MDA-MB-231 breast and 40.1 µM in the assay with SNB-75 CNS.
For `Cc1cc(Cl)ccc1N1C(=O)C(=O)C(c2nc3ccccc3s2)C(=O)C1=O`, the TGI with NCI-H226 lung, in the assay with HL-60(TB) leukemia, in the assay with TK-10 renal, in the assay on UO-31 renal, with EKVX NSCLC and in the assay with SNB-75 CNS was > 100 µM throughout.
With `Cc1cc2c(=O)cc(-c3ccc(Cl)cc3)oc2c(C(=O)O)c1C`, the TGI in the assay with NCI-H226 lung, with TK-10 renal, in the assay with UO-31 renal, with RXF 393 renal, in the assay on EKVX NSCLC and in the assay on SNB-75 CNS was > 100 µM throughout.
